# Data: article PMC8668186, “Molecular architecture of the human tRNA ligase complex” (eLife, 2021)
# Biological target: T1, RTCB (Homo sapiens, UniProt Q9Y3I0)
# T1 construct: full length (505 residues), N-terminal His6 tag removed with TEV protease, expressed in Sf9 insect cells; model residues 3-505 with gaps
# T1 sequence (Q9Y3I0 1-505): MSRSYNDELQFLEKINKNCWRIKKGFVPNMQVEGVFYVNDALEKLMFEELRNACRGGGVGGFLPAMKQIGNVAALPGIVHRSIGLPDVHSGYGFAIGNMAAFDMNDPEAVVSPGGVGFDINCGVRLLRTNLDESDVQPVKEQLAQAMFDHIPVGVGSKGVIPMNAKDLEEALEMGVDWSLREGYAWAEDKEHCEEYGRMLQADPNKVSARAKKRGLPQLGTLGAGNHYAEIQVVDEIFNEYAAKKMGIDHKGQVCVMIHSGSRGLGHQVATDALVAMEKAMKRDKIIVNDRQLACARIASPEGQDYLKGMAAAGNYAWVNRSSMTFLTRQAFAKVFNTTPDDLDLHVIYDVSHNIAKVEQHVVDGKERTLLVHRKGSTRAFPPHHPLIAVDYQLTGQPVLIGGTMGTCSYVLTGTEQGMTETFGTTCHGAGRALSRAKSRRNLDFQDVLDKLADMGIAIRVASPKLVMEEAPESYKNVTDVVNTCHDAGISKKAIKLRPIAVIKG
# Experiment: X-ray crystal structure, […] Å
# Format: binding
# Conditions: two Co2+ ions in active site, crystallised at pH 5.5, 20 °C, 5 mM CoCl2, 0.5 mM GMP, non-covalent product-bound state
smiles,measurement,value
Nc1nc2c(ncn2[C@@H]2O[C@H](COP(=O)(O)O)[C@@H](O)[C@H]2O)c(=O)[nH]1 [GMP],"X-ray crystal structure, 2.3 Å",crystal structure of human RTCB in complex with a GMP molecule and two divalent cobalt
